Assay results: patent US20220241311A1, “METHODS AND MATERIALS FOR TREATING GLYCOSYLATION DISORDERS” (priority 2018, published 2022)

Test system: PGM1-defective patient fibroblasts
Assay: Nucleotide sugar analysis (UPLC-PDA), patient fibroblasts
Type: cell-based, human
Description: Levels of nucleotides and sugar-nucleotides were determined. Fibroblast cell pellets (5×10^6 cells per sample) were lysed and extracted in 0.37 ml ice-cold 0.5 M perchloric acid with sonication on ice. Samples were neutralized with 86 μl ice-cold neutralization solution (2.5 M KOH in 1.5 M K2HPO4) after 5 minute sonication. To remove precipitated potassium perchlorate neutralized samples were centrifuged at 4° C. and 16,400×g for 10 minutes and filtered with 0.2 μm filters. Nucleotides and sugar-nucleotides were immediately analyzed and separated via ion-pair reverse phased chromatography using an Acquity HSS T3 column (150 mm×2.1 mm, 1.7 μm, Waters) connected to an Acquity H-class UPLC system. The column temperature was set to 40° C. and the column was equilibrated with solvent A (50 mM potassium phosphate buffer, 8 mM tetrabutylammonium hydrogensulfate, pH 6.5) at a flow rate of 0.45 ml min^−1. Autosampler temperature was maintained at 6° C. […] Nucleotides were detected by Acquity PDA detector (Waters, 260 nm) and quantified using ultrapure standards (Sigma). Data acquisition and processing was performed with the Empower3 software suite (Waters).
Nucleotide sugars were measured with serum starvation during 18 hours of culturing and without of serum starvation and applying normal media.

[1] = patient 1, 1 d + 0.75 mM Galactose
[2] = patient 1, 4 d + 0.75 mM Galactose
[3] = patient 2, 1 d + 0.75 mM Galactose
[4] = patient 2, 4 d + 0.75 mM Galactose

Work on `O=C[C@H](O)[C@@H](O)[C@@H](O)[C@H](O)CO` [D-gal, D-galactose] yielded an ADP (patient 1, 1 d 2 mM Galactose) of 580.50 pmol/mio cells, an ATP (patient 1, 1 d 2 mM Galactose) of 2719.61 pmol/mio cells and a CTP (patient 1, 1 d 2 mM Galactose) of 342.25 pmol/mio cells. For the same molecule, the GDP (patient 1, 1 d 2 mM Galactose) was 293.65 pmol/mio cells, the GDP-Man (patient 1, 1 d 2 mM Galactose) was 107.17 pmol/mio cells and the GTP (patient 1, 1 d 2 mM Galactose) was 542.24 pmol/mio cells. For the same molecule, the UDP (patient 1, 1 d 2 mM Galactose) was 129.40 pmol/mio cells, the UDP-Gal (patient 1, 1 d 2 mM Galactose) was 453.09 pmol/mio cells and the UDP-Glc (patient 1, 1 d 2 mM Galactose) was 650.22 pmol/mio cells. The UDP-GlcNAc (patient 1, 1 d 2 mM Galactose) was 102.26 pmol/mio cells, the UTP (patient 1, 1 d 2 mM Galactose) was 1449.38 pmol/mio cells and the cAMP (patient 1, 1 d 2 mM Galactose) was 74.49 pmol/mio cells. For the same molecule, the ADP [1] was 584.35 pmol/mio cells, the AMP [1] was 23.07 pmol/mio cells and the ATP [1] was 2943.38 pmol/mio cells. For the same molecule, the CTP [1] was 366.00 pmol/mio cells, the GDP [1] was 246.90 pmol/mio cells and the GDP-Man [1] was 155.03 pmol/mio cells. It also gave a GTP [1] of 588.22 pmol/mio cells, a UDP [1] of 134.67 pmol/mio cells and a UDP-Gal [1] of 386.15 pmol/mio cells. It also gave a UDP-Glc [1] of 604.90 pmol/mio cells, a UDP-GlcNAc [1] of 121.57 pmol/mio cells and a UTP [1] of 1510.19 pmol/mio cells. The cAMP [1] was 71.81 pmol/mio cells, the ADP (patient 1, 4 d 2 mM Galactose) was 772.84 pmol/mio cells and the AMP (patient 1, 4 d 2 mM Galactose) was 22.72 pmol/mio cells. The ATP (patient 1, 4 d 2 mM Galactose) was 3861.23 pmol/mio cells, the CTP (patient 1, 4 d 2 mM Galactose) was 370.91 pmol/mio cells and the GDP (patient 1, 4 d 2 mM Galactose) was 387.40 pmol/mio cells. The GDP-Man (patient 1, 4 d 2 mM Galactose) was 170.10 pmol/mio cells, the GTP (patient 1, 4 d 2 mM Galactose) was 763.70 pmol/mio cells and the UDP (patient 1, 4 d 2 mM Galactose) was 215.93 pmol/mio cells. It also gave a UDP-Gal (patient 1, 4 d 2 mM Galactose) of 398.07 pmol/mio cells, a UDP-Glc (patient 1, 4 d 2 mM Galactose) of 620.64 pmol/mio cells and a UDP-GlcNAc (patient 1, 4 d 2 mM Galactose) of 12.26 pmol/mio cells. It also gave a UTP (patient 1, 4 d 2 mM Galactose) of 1569.45 pmol/mio cells, a cAMP (patient 1, 4 d 2 mM Galactose) of 71.92 pmol/mio cells and an ADP [2] of 789.98 pmol/mio cells. The AMP [2] was 34.87 pmol/mio cells, the ATP [2] was 3796.06 pmol/mio cells and the CTP [2] was 342.60 pmol/mio cells. For the same molecule, the GDP [2] was 422.05 pmol/mio cells, the GDP-Man [2] was 217.57 pmol/mio cells and the GTP [2] was 749.54 pmol/mio cells. For the same molecule, the UDP [2] was 208.17 pmol/mio cells, the UDP-Gal [2] was 331.94 pmol/mio cells and the UDP-Glc [2] was 475.08 pmol/mio cells. The UDP-GlcNAc [2] was 38.85 pmol/mio cells, the UTP [2] was 1526.34 pmol/mio cells and the cAMP [2] was 73.68 pmol/mio cells. The ADP (patient 2, 1 d 2 mM Galactose) was 610.98 pmol/mio cells, the AMP (patient 2, 1 d 2 mM Galactose) was 18.34 pmol/mio cells and the ATP (patient 2, 1 d 2 mM Galactose) was 5088.22 pmol/mio cells. The CTP (patient 2, 1 d 2 mM Galactose) was 419.20 pmol/mio cells, the GDP (patient 2, 1 d 2 mM Galactose) was 301.50 pmol/mio cells and the GDP-Man (patient 2, 1 d 2 mM Galactose) was 194.09 pmol/mio cells. For the same molecule, the GTP (patient 2, 1 d 2 mM Galactose) was 982.69 pmol/mio cells, the UDP (patient 2, 1 d 2 mM Galactose) was 166.53 pmol/mio cells and the UDP-Gal (patient 2, 1 d 2 mM Galactose) was 527.44 pmol/mio cells. For the same molecule, the UDP-Glc (patient 2, 1 d 2 mM Galactose) was 871.97 pmol/mio cells, the UDP-GlcNAc (patient 2, 1 d 2 mM Galactose) was 5.21 pmol/mio cells and the UTP (patient 2, 1 d 2 mM Galactose) was 2093.30 pmol/mio cells. For the same molecule, the cAMP (patient 2, 1 d 2 mM Galactose) was 81.52 pmol/mio cells, the ADP [3] was 754.10 pmol/mio cells and the AMP [3] was 16.43 pmol/mio cells. The ATP [3] was 5766.25 pmol/mio cells, the CTP [3] was 448.80 pmol/mio cells and the GDP [3] was 356.25 pmol/mio cells. It also gave a GDP-Man [3] of 236.64 pmol/mio cells, a GTP [3] of 1110.15 pmol/mio cells and a UDP [3] of 219.47 pmol/mio cells. For the same molecule, the UDP-Gal [3] was 478.66 pmol/mio cells, the UDP-Glc [3] was 821.98 pmol/mio cells and the UDP-GlcNAc [3] was 36.15 pmol/mio cells. For the same molecule, the UTP [3] was 2422.95 pmol/mio cells, the cAMP [3] was 77.51 pmol/mio cells and the ADP (patient 2, 4 d 2 mM Galactose) was 849.99 pmol/mio cells. It also gave an AMP (patient 2, 4 d 2 mM Galactose) of 20.40 pmol/mio cells, an ATP (patient 2, 4 d 2 mM Galactose) of 6520.85 pmol/mio cells and a CTP (patient 2, 4 d 2 mM Galactose) of 430.21 pmol/mio cells. For the same molecule, the GDP (patient 2, 4 d 2 mM Galactose) was 356.50 pmol/mio cells, the GDP-Man (patient 2, 4 d 2 mM Galactose) was 340.74 pmol/mio cells and the GTP (patient 2, 4 d 2 mM Galactose) was 1241.95 pmol/mio cells. It also gave a UDP (patient 2, 4 d 2 mM Galactose) of 249.58 pmol/mio cells, a UDP-Gal (patient 2, 4 d 2 mM Galactose) of 455.92 pmol/mio cells and a UDP-Glc (patient 2, 4 d 2 mM Galactose) of 665.41 pmol/mio cells. The UDP-GlcNAc (patient 2, 4 d 2 mM Galactose) was 2.63 pmol/mio cells, the UTP (patient 2, 4 d 2 mM Galactose) was 2810.26 pmol/mio cells and the cAMP (patient 2, 4 d 2 mM Galactose) was 70.40 pmol/mio cells. The ADP [4] was 834.56 pmol/mio cells, the AMP [4] was 21.45 pmol/mio cells and the ATP [4] was 6841.61 pmol/mio cells. For the same molecule, the CTP [4] was 425.54 pmol/mio cells, the GDP [4] was 394.32 pmol/mio cells and the GDP-Man [4] was 203.23 pmol/mio cells. It also gave a GTP [4] of 1263.21 pmol/mio cells, a UDP [4] of 262.74 pmol/mio cells and a UDP-Gal [4] of 390.10 pmol/mio cells. It also gave a UDP-Glc [4] of 611.51 pmol/mio cells, a UDP-GlcNAc [4] of 4.53 pmol/mio cells and a UTP [4] of 2976.41 pmol/mio cells. The cAMP [4] was 72.52 pmol/mio cells and the “Nucleotide sugar ratio UDP-Glc/UDP-Gal, mean” value (patient cell lines on D-gal (1.63 without)) was 1.56.
